Reference: patent publication US7432109B2, “Spetroscopic pH measurement using optimized mixtures of reagents to extend measurement range” (Schlumberger Technology Corporation, priority 2002, dated 2008)

Experiment: thermodynamic acid dissociation constant (pKa) of pH sensitive reagents
Type: physicochemical
Settings: reagent properties used in simulations

O=S1(=O)OC(c2cc(Br)c(O)c(Br)c2)(c2cc(Br)c(O)c(Br)c2)c2ccccc21 [Bromophenol Blue]
pKa: 4.11

O=S1(=O)OC(c2ccc(O)c(Cl)c2)(c2ccc(O)c(Cl)c2)c2ccccc21 [Chlorophenol Red]
pKa: 6.11
